Assay results taken from PMC2990756, “Quantitative High-Throughput Screening Identifies 8-Hydroxyquinolines as Cell-Active Histone Demethylase Inhibitors” (PLoS ONE, 2010).
Where two headings read alike, the source gives them in different places.

How the values were obtained:
[1] = biological target: T1, JMJD2E (Homo sapiens, UniProt B2RXH2); test: MALDI-TOF MS demethylation assay, JMJD2E; conditions: for MALDI-TOF Data: Span: span of the fitted curve
T1 sequence (B2RXH2 1-337): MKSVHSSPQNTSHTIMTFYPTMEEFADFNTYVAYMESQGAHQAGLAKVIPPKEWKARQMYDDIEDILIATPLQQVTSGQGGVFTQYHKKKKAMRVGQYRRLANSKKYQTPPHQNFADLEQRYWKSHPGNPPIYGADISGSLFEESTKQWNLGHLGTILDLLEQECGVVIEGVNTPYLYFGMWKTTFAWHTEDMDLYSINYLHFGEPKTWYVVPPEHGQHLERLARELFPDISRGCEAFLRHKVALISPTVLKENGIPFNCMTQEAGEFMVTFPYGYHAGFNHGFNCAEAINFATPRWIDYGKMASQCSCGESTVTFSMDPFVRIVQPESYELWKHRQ
Protocol: Initially, JMJD2, Fe(II), ascorbate and inhibitors were pre-incubated for 15 min prior to the addition of peptide and 2OG. The reaction was incubated for 30 min before 1∶1 quenching with methanol followed by addition of four volumes of 20 mM triammonium citrate. […] The diluted assay mixture (1 µL) from JMJD2 and PHD2 assays were mixed with 1 µL of α-cyano-4-hydroxycinnamic acid and 1 µL of FIH assay mixture was mixed with 1 µL of sinapinic acid matrix, and assessed by matrix-assisted laser desorption/ionization-time of flight (MALDI-TOF).

[2] = biological target: T2, JMJD2E (KDM4E) (Homo sapiens, UniProt B2RXH2); test: qHTS fluorescence FDH-coupled JMJD2E demethylase assay; format: biochemical
T2 construct: The catalytic domain of human JMJD2E (residues 1–337); His6 (N); made in house; host or cells: E. coli
T2 sequence (B2RXH2 1-337): T1 sequence (B2RXH2 1-337)

[3] = biological target: PHD2 (catalytic domain) (Homo sapiens, UniProt Q9GZT9); test: MALDI-TOF MS peptide hydroxylation assay, PHD2
Sequence of PHD2 (catalytic domain) (Q9GZT9 181-426 limits assumed): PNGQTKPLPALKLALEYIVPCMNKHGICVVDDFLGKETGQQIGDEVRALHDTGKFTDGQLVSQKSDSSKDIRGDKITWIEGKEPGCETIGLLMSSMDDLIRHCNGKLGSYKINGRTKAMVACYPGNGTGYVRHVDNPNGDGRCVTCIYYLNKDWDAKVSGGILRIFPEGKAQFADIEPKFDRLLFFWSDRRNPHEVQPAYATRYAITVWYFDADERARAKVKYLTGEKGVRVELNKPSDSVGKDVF
Protocol: (§1) JMJD2 assays were carried out as reported [13]. […] Initially, JMJD2, Fe(II), ascorbate and inhibitors were pre-incubated for 15 min prior to the addition of peptide and 2OG. The reaction was incubated for 30 min before 1∶1 quenching with methanol followed by addition of four volumes of 20 mM triammonium citrate. PHD2 and FIH assays were carried out as described [41], [42] with minor modifications. PHD2 assay consisted of PHD2 (1 µM), FAS (10 µM), SA (100 µM), 2OG (60 µM) and HIF-1α^556–574CODD peptide (50 µM), in 50 mM HEPES (pH 7.5) with varying concentrations of inhibitors (final DMSO concentration was 5%). Initially, PHD2, Fe(II), ascorbate and inhibitors were pre-incubated for 15 min prior to the addition of peptide and 2OG. The reaction was incubated for 30 min before 1∶1 quenching with 1% TFA followed by addition of three volumes of 20 mM triammonium citrate. FIH assay consisted of FIH (1 µM), FAS (10 µM), SA (100 µM), 2OG (100 µM) and HIF-1α^786–826CAD peptide (100 µM), in 50 mM HEPES (pH 7.5) with varying concentrations of inhibitors (final DMSO concentration was 5%). […] The diluted assay mixture (1 µL) from JMJD2 and PHD2 assays were mixed with 1 µL of α-cyano-4-hydroxycinnamic acid and 1 µL of FIH assay mixture was mixed with 1 µL of sinapinic acid matrix, and assessed by matrix-assisted laser desorption/ionization-time of flight (MALDI-TOF).

[4] = biological target: FIH (Homo sapiens, UniProt Q9NWT6); test: MALDI-TOF MS peptide hydroxylation assay, FIH
Sequence of FIH (Q9NWT6 whole entry): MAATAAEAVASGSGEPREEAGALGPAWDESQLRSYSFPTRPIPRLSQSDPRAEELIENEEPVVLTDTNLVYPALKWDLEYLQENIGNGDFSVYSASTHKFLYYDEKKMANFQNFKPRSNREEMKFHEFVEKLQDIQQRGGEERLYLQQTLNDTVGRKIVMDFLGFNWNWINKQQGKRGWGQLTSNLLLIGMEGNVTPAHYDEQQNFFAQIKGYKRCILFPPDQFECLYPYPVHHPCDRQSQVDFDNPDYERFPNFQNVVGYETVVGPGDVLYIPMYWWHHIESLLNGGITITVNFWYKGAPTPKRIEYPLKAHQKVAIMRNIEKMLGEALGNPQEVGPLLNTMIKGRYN
Protocol: as §1

[5] = biological target: T3, JMJD2A (Homo sapiens, UniProt O75164); test: MALDI-TOF MS demethylation assay, JMJD2A
T3 sequence (O75164 1-359 limits assumed): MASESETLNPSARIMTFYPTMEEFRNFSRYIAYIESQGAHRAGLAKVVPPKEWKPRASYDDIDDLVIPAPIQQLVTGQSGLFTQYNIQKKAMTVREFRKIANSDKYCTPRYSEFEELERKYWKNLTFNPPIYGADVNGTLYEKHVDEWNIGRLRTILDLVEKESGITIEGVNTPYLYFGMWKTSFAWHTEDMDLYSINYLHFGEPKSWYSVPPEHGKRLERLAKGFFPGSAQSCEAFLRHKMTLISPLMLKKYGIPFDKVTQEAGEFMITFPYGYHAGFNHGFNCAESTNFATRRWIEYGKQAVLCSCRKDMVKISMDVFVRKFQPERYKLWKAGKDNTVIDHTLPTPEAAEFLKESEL
Protocol: as §1

[6] = biological target: T4, JMJD2A (Homo sapiens, UniProt O75164); test: Cellular demethylase assay: H3K9me3 immunofluorescence in HeLa cells overexpressing Flag-JMJD2A; conditions: 24 hr
T4 sequence (O75164 1-1064): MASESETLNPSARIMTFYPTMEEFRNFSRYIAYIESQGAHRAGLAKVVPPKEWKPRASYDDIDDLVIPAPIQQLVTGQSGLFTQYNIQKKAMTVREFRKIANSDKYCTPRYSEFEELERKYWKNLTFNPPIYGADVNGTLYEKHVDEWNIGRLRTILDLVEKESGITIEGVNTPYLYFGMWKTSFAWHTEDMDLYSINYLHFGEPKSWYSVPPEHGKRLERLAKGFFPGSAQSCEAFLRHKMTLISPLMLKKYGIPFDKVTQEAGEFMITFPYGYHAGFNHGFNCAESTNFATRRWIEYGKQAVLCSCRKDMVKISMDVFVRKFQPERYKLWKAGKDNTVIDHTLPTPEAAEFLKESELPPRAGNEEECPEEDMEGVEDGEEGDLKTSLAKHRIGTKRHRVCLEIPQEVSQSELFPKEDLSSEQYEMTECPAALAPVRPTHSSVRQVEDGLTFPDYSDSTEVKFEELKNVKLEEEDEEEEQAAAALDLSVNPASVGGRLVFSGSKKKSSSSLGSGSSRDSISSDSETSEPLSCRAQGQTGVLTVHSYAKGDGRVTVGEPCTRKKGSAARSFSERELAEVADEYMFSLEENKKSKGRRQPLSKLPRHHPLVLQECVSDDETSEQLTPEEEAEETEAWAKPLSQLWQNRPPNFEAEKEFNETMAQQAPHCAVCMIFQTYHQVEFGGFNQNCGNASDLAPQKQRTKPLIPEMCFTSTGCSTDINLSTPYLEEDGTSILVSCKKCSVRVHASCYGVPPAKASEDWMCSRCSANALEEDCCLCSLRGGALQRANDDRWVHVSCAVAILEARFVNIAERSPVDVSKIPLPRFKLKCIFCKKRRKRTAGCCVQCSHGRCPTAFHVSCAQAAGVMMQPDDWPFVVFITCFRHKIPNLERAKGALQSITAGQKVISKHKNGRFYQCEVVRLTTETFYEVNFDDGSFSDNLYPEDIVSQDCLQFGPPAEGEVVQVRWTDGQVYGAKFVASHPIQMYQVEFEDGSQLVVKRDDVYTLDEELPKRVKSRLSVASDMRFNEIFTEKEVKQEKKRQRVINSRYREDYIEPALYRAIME
Description: Therefore, in order to automate this process a series of images were collected for each treatment on a standard epifluorescence microscope ( Figure 5A ) and then submitted to CellProfiler Software for analysis [29]. CellProfiler was configured to analyze the images for DAPI signal, a DNA stain, enabling the program to identify the location of individual cells and create a boundary that delineates the volume of the nuclear compartment. As not all cells in a given field are transfected, the Flag-JMJD2A-expressing cells were identified by quantifying the immunofluoresence signal resulting from the Flag antibody staining and using the mock transfected cells as a baseline for the signal intensity of non-transfected cells. Once the transfected cells were identified, the nuclear H3K9me3 immunofluorescence signal for each cell was quantified by CellProfiler. The levels of H3K9me3 staining intensity were analyzed in the DMSO vehicle treated or inhibitor treated samples. As a control and a means of determining maximal possible inhibition of demethylase activity, cells expressing the JMJD2A H188A catalytically deficient mutant were also quantified in each experiment. […] For each treatment a minimum of 400 transfected cells was analyzed and the final values of inhibition were derived from inhibition experiments carried out on three separate days (biological triplicates). […]

[7] = Cytotoxicity, resazurin/resorufin (CellTiter-Blue); format: cell-based; conditions: human, HeLa cells
Protocol: Cytotoxicity testing of the 5-carboxy-8HQ on HeLa cells was conducted with the resazurin/resorufin system for cellular metabolism.
Cytotoxicity testing was done with CellTiter-Blue (Promega) according to the manufacturer's directions.

[8] = biological target: T5, formaldehyde dehydrogenase (FDH) (Pseudomonas putida, UniProt P46154); test: FDH coupling enzyme counterscreen; format: biochemical; conditions: Table S1, FDH counterscreen; for IC50: unit not in table, from Figure 2, read-out: qHTS Data: jmjd2e fdh IC50
T5 construct: purchased Sigma-Aldrich
T5 sequence (P46154 whole entry): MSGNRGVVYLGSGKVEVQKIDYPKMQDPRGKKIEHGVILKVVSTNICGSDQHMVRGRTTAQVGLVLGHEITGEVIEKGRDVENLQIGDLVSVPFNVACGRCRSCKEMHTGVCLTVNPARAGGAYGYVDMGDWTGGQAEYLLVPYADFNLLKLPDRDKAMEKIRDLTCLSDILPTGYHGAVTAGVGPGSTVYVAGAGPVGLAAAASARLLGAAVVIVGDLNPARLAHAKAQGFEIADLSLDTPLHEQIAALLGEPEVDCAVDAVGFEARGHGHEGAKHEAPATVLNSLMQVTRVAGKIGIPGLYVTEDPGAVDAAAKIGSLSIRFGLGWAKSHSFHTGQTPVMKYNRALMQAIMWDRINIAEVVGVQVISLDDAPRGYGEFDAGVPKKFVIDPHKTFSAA
Description: Dimethylsulfoxide certified ACS grade (DMSO) was from Fisher, Inc. HEPES buffer was obtained from Gibco. […] Black solid-bottom 1,536-well assay plates were from Greiner Bio-One (Monroe, NC).

[9] = biological target: T1, JMJD2E; test: JMJD2E FDH-coupled assay under low and high iron conditions (iron chelation profile); format: biochemical; set-up: The catalytic domain of human JMJD2E (residues 1–337); His6 (N); made in house; host or cells: E. coli; conditions: Table S1; for IC50: unit not in table, from Figure 2
Protocol: The prioritized compounds were also evaluated in the screening assay using two different ferrous ion concentrations (termed high iron and low iron, respectively), in order to assess their propensity for iron chelation.
The ratio of IC50 values under high iron to low iron was calculated for each compound.

[10] = read-out: MALDI-TOF Data: IC50, Table S1, 2 µM JMJD2E, unit not in table, ~ values are poorly fitted
[11] = high iron, head says 20 µM FAS, read-out: qHTS Data: jmjd2e fas20um IC50
[12] = low iron 2.5 µM FAS, read-out: qHTS Data: jmjd2e fas2.5um IC50
[13] = Table S1, unit not in table, from Figure 2, read-out: qHTS Data: jmjd2e IC50

Row | Structure (SMILES) | MALDI-TOF Data: Span ([1]; Table S1, 2 µM JMJD2E) | IC50 [1, 10] | qHTS Data: jmjd2e fdh CurveClass [8] | IC50 [9, 11] | IC50 [9, 12] | IC50 [2, 13] | also measured
1 | Oc1ccc(CNc2ccccc2F)c2cccnc12 [SID 852641] | – | – | – | – | – | – | IC50 [1]: 6 µM; IC50 ([2]; Figure 3, substituted 8-hydroxyquinolines against JMJD2E, read-out: IC50 /μM (qHTS IC50, FDH-coupled assay)): 1.1 µM; IC50 [3]: 14.4 µM; IC50 [4]: 19.6 µM; IC50 [5]: 8.2 µM
2 | COC(=O)CNC(=O)C(=O)OC [DMOG, dimethyloxalylglycine] | – | – | – | – | – | – | JMJD2A demethylase activity remaining ([6]; 2.5mM treatment): approximately 20%
3 | O=C(O)c1ccc(O)c2ncccc12 [SID 85736331, 5-carboxy-8-hydroxyquinoline] | – | – | – | – | – | – | IC50 [7]: 292 µM; IC50 [4]: 20.5 µM
4 | C=CCn1c(SCC(=O)c2ccc(O)c(O)c2)nnc1-c1cccnc1 [compound 26671532] | 91.73 | 11.8 µM | Poor quality curve | 1.26 µM | 7.94 µM | 3.55 µM | IC50 [8]: 14.1 µM
5 | CCOc1cc(CNc2ccc(N3CCCCC3)cc2)cc(Br)c1OCC(=O)NC(C)(C)C [compound 22412645] | ~ 104.5 | – | Inactive | 3.16 µM | 39.8 µM | 3.16 µM | qHTS Data: jmjd2e fas2.5um Curve comment ([9]; low iron 2.5 µM FAS): Inconclusive
6 | CCOc1c(Cl)cc(CNc2ccc(N3CCCC3)cc2)cc1OC [compound 24795526] | ~ 11904 | – | Inactive | 19.9 µM | 3.98 µM | 8.91 µM | qHTS Data: jmjd2e fas20um CurveClass ([9]; high iron): Poor quality curve
7 | c1cnc2c(c1)ccc1cccnc12 [compound 11533040] | 93.01 | ~26.5 µM | Inactive | 3.98 µM | 10 µM | 0.25 µM | –
8 | COC(=O)c1ccnc(C(=O)OC)c1 [dimethyl-2,4-PDCA] | – | – | – | – | – | – | JMJD2A demethylase activity remaining ([6]; 1mM treatment): approximately 35%
9 | Oc1ccc(NCc2ccccc2OCc2ccccc2F)cc1 [compound 17385881] | 3.087 | – | Poor quality curve | 8.91 µM | 8.91 µM | 5.01 µM | IC50 [8]: 14.1 µM
10 | COc1cccc(/C=N/NC(=O)CNC(=O)COc2cccc(C)c2)c1O [compound 26660958] | 89.52 | 10.2 µM | Inactive | – | 4.47 µM | 2.82 µM | qHTS Data: jmjd2e fas20um CurveClass ([9]; high iron): Inconclusive
11 | Nc1ccc2nc3c(=O)n(CCc4ccccc4)c(=O)[nH]c3nc2c1 [compound 26726384] | 51.81 | 141 µM | Inactive | 14.1 µM | 7.08 µM | 1.78 µM | qHTS Data: jmjd2e fas2.5um Curve comment ([9]; low iron 2.5 µM FAS): Poor quality curve
12 | CCCCc1ccc(C(=O)O)nc1 [compound 11111188] | ~ 5848 | – | Inactive | 1.58 µM | 3.55 µM | 3.98 µM | –
13 | O=c1nc(N/N=C/c2ccccn2)cn[nH]1 [compound 24822918] | 97.61 | ~7.05 µM | Inconclusive | 15.8 µM | 7.08 µM | 10 µM | –
14 | CN1CCN(Cc2cc(COCc3ccccc3)c3cccnc3c2O)CC1 [compound 4248346] | 96.1 | 17.2 µM | Inactive | 8.91 µM | 7.08 µM | 8.91 µM | –
15 | O=c1c2ccccc2sn1-c1nccs1 [compound 24830882] | 82.19 | 10.2 µM | Inactive | 3.98 µM | 7.94 µM | 7.94 µM | –
16 | O=c1cc(-c2ccccc2)oc2cc(O)c(O)c(O)c12 [compound 11114203] | 89.05 | 5.8 µM | Inactive | 8.91 µM | 2.24 µM | 0.89 µM | –
17 | COc1ccc(/C=C/C(=O)NC(=S)NNC(=O)c2cnccn2)cc1 [compound 26725781] | 94.6 | 3.5 µM | Inactive | 8.91 µM | 10 µM | 7.94 µM | –
18 | Br.Oc1ccc(C2CNCCc3c2cc(O)c(O)c3Cl)cc1 (stereo not shown) [compound 50106351] | 93.35 | 8.4 µM | Inactive | 7.94 µM | 6.31 µM | 25.1 µM | –
